Measurements: patent publication US20260262643A1, “HERBICIDAL BENZOXAZINES” (FMC CORPORATION, priority 2022, published 2026)

Columns and labels:
pigweed, palmer [1] = test: Test C preemergence; assay type: in vivo, Amaranthus palmeri
In short: (§1)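 Soil-applied (pre) and foliar (post, 1–2 leaf, 2–10 cm) sprays; surfactant-containing non-phytotoxic solvent vehicle; loam/sand substrate. Readout: visual % control at 10 d, greenhouse, versus untreated.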

foxtail, giant [2] = test: Test C preemergence; assay type: in vivo, Setaria faberi
Source text: (§2) Seeds of plant species selected from barnyardgrass (Echinochloa crusgalli), blackgrass (Alopecurus myosuroides), corn (Zea mays), foxtail, giant (giant foxtail, Setaria faberi), green foxtail (Setaria viridis), goosegrass (Eleusine indica), kochia (Bassia scoparia), oat, wild (wild oat, Avena fatua), pigweed, palmer (palmer amaranth, palmer pigweed, Amaranthus palmeri), Pigweed, Redroot (redroot pigweed, Amaranthus retroflexus), ragweed (common ragweed, Ambrosia artemisiifolia), ryegrass, Italian ([…] ryegrass, Lolium multiflorum), soybean (Glycine max), and wheat (Triticum aestivum) were planted into a blend of loam soil and sand and treated preemergence with a directed soil spray using test chemicals formulated in a non-phytotoxic solvent mixture which included a surfactant. At the same time, plants selected from these crops and weed species and also galium (catchweed bedstraw, Galium aparine) and horseweed (Erigeron canadensis) were planted in pots containing the same blend of loam soil and sand and treated with postemergence applications of test chemicals formulated in the same manner. Plants ranged in height from 2 to 10 cm and were in the one- to two-leaf stage for the postemergence treatment. Treated plants and untreated controls were maintained in a greenhouse for 10 days, after which time all treated plants were compared to untreated controls and visually evaluated for injury. Plant response ratings, summarized in Table C, are based on a 0 to 100 scale where 0 is no effect and 100 is complete control. A dash (-) response means no test result.

wheat [3] = test: Test C preemergence; assay type: in vivo, Triticum aestivum
In short: as §1

barnyardgrass [4] = test: Test C postemergence; assay type: in vivo, Echinochloa crusgalli; conditions: 10 days, 0 to 100 scale (0 no effect, 100 complete control)
In short: as §1

blackgrass [5] = test: Test C preemergence; assay type: in vivo, Alopecurus myosuroides
In short: as §1

ryegrass, Italian [6] = test: Test C postemergence; assay type: in vivo, Lolium multiflorum; conditions: 10 days, 0 to 100 scale (0 no effect, 100 complete control)
In short: as §1

foxtail, giant [7] = test: Test C postemergence; assay type: in vivo, Setaria faberi; conditions: 10 days, 0 to 100 scale (0 no effect, 100 complete control)
Source text: as §2

soybean [8] = test: Test C postemergence; assay type: in vivo, Glycine max; conditions: 10 days, 0 to 100 scale (0 no effect, 100 complete control)
In short: as §1

wheat [9] = test: Test C postemergence; assay type: in vivo, Triticum aestivum; conditions: 10 days, 0 to 100 scale (0 no effect, 100 complete control)
In short: as §1

barnyardgrass [10] = test: Test C preemergence; assay type: in vivo, Echinochloa crusgalli
In short: as §1

ragweed [11] = test: Test C preemergence; assay type: in vivo, Ambrosia artemisiifolia
In short: as §1

oat, wild [12] = test: Test C postemergence; assay type: in vivo, Avena fatua; conditions: 10 days, 0 to 100 scale (0 no effect, 100 complete control)
In short: as §1

ryegrass, Italian [13] = test: Test C preemergence; assay type: in vivo, Lolium multiflorum
In short: as §1

sedge, umbrella = test: Test D flooded paddy test; assay type: in vivo, Cyperus difformis; conditions: 250 g ai/ha, applied to paddy water, visual rating after 13 to 14 days, scale 0 to 100 (0 no effect, 100 complete control)
In short: (§3)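 Plants grown to the 2-leaf stage; pots flooded to 3 cm above soil at treatment and held at that depth throughout. Test compounds applied directly to the paddy water. After 13 to 14 days in a greenhouse, response was rated visually versus controls on a 0 (no effect) to 100 (complete control) scale.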

horseweed = test: Test C postemergence; assay type: in vivo, Erigeron canadensis; conditions: 10 days, 0 to 100 scale (0 no effect, 100 complete control)
In short: as §1

galium = test: Test C postemergence; assay type: in vivo, Galium aparine; conditions: 10 days, 0 to 100 scale (0 no effect, 100 complete control)
In short: as §1

rice = test: Test D flooded paddy test; assay type: in vivo, Oryza sativa; conditions: 250 g ai/ha, applied to paddy water, visual rating after 13 to 14 days, scale 0 to 100 (0 no effect, 100 complete control)
In short: as §3

ducksalad = test: Test D flooded paddy test; assay type: in vivo, Heteranthera limosa; conditions: 250 g ai/ha, applied to paddy water, visual rating after 13 to 14 days, scale 0 to 100 (0 no effect, 100 complete control)
In short: as §3

kochia [14] = test: Test C postemergence; assay type: in vivo, Bassia scoparia; conditions: 10 days, 0 to 100 scale (0 no effect, 100 complete control)
In short: as §1

kochia [15] = test: Test C preemergence; assay type: in vivo, Bassia scoparia
In short: as §1

oat, wild [16] = test: Test C preemergence; assay type: in vivo, Avena fatua
In short: as §1

soybean [17] = test: Test C preemergence; assay type: in vivo, Glycine max
In short: as §1

corn = test: Test C postemergence; assay type: in vivo, Zea mays; conditions: 10 days, 0 to 100 scale (0 no effect, 100 complete control)
In short: as §1

ragweed [18] = test: Test C postemergence; assay type: in vivo, Ambrosia artemisiifolia; conditions: 10 days, 0 to 100 scale (0 no effect, 100 complete control)
In short: as §1

barnyardgrass [19] = test: Test D flooded paddy test; assay type: in vivo, Echinochloa crus-galli; conditions: 250 g ai/ha, applied to paddy water, visual rating after 13 to 14 days, scale 0 to 100 (0 no effect, 100 complete control)
In short: as §3

blackgrass [20] = test: Test C postemergence; assay type: in vivo, Alopecurus myosuroides; conditions: 10 days, 0 to 100 scale (0 no effect, 100 complete control)
In short: as §1

pigweed, palmer [21] = test: Test C postemergence; assay type: in vivo, Amaranthus palmeri; conditions: 10 days, 0 to 100 scale (0 no effect, 100 complete control)
In short: as §1

[22] = 500 g ai/ha, preemergence, 0 to 100 scale (0 no effect, 100 complete control)
[23] = Preemergence, 125 g ai/ha, 0 to 100 scale, 0 no effect, 100 complete control

## COc1ccc(-n2cnc(C3CCC3)n2)cc1C(=O)N1C[C@H](C)Oc2c(Cl)cccc21 [Compound 323]
pigweed, palmer [1]; [22]
  Pigweed, Palmer plant response rating: 100
pigweed, palmer [1]; [23]
  Plant response rating, Pigweed, Palmer: 100
foxtail, giant [2]; [22]
  Foxtail, Giant plant response rating: 100
foxtail, giant [2]; [23]
  Plant response rating, Foxtail, Giant: 90
Wheat [3]; [22]
  Wheat plant response rating: 80
Wheat [3]; [23]
  Plant response rating, Wheat: 60
Barnyardgrass [4]; 500 g ai/ha, postemergence
  Plant response rating, Barnyardgrass: 60
Barnyardgrass [4]; Postemergence, 125 g ai/ha
  Plant response rating, Barnyardgrass: 30
Blackgrass [5]; [22]
  Blackgrass plant response rating: 80
Blackgrass [5]; [23]
  Plant response rating, Blackgrass: 70
ryegrass, Italian [6]; 500 g ai/ha, postemergence
  Plant response rating, Ryegrass, Italian: 60
ryegrass, Italian [6]; Postemergence, 125 g ai/ha
  Plant response rating, Ryegrass, Italian: 10
foxtail, giant [7]; 500 g ai/ha, postemergence
  Plant response rating, Foxtail, Giant: 90
foxtail, giant [7]; Postemergence, 125 g ai/ha
  Plant response rating, Foxtail, Giant: 20
Soybean [8]; 500 g ai/ha, postemergence
  Plant response rating, Soybean: 100
Soybean [8]; Postemergence, 125 g ai/ha
  Plant response rating, Soybean: 100
Wheat [9]; 500 g ai/ha, postemergence
  Plant response rating, Wheat: 20
Wheat [9]; Postemergence, 125 g ai/ha
  Plant response rating, Wheat: 20
Barnyardgrass [10]; [22]
  Barnyardgrass plant response rating: 100
Barnyardgrass [10]; [23]
  Plant response rating, Barnyardgrass: 70
Ragweed [11]; [22]
  Ragweed plant response rating: 100
Ragweed [11]; [23]
  Plant response rating, Ragweed: 30
oat, wild [12]; 500 g ai/ha, postemergence
  Plant response rating, Oat, Wild: 20
oat, wild [12]; Postemergence, 125 g ai/ha
  Plant response rating, Oat, Wild: 20
ryegrass, Italian [13]; [22]
  Ryegrass, Italian plant response rating: 80
ryegrass, Italian [13]; [23]
  Plant response rating, Ryegrass, Italian: 70
sedge, umbrella
  Plant response rating, Sedge, Umbrella (Flood): 70
horseweed; 500 g ai/ha, postemergence
  Plant response rating, Horseweed: 40
horseweed; Postemergence, 125 g ai/ha
  Plant response rating, Horseweed: 30
galium; 500 g ai/ha, postemergence
  Plant response rating, Galium: 100
galium; Postemergence, 125 g ai/ha
  Plant response rating, Galium: 100
rice
  Plant response rating, Rice (Flood): 0
ducksalad
  Plant response rating, Ducksalad (Flood): 30
Kochia [14]; 500 g ai/ha, postemergence
  Plant response rating, Kochia: 90
Kochia [14]; Postemergence, 125 g ai/ha
  Plant response rating, Kochia: 90
Kochia [15]; [22]
  Kochia plant response rating: 100
Kochia [15]; [23]
  Plant response rating, Kochia: 90
oat, wild [16]; [22]
  Oat, Wild plant response rating: 70
oat, wild [16]; [23]
  Plant response rating, Oat, Wild: 20
Soybean [17]; [22]
  Soybean plant response rating: 80
Soybean [17]; [23]
  Plant response rating, Soybean: 50
corn; 500 g ai/ha, postemergence
  Plant response rating, Corn: 50
corn; Postemergence, 125 g ai/ha
  Plant response rating, Corn: 10
Ragweed [18]; 500 g ai/ha, postemergence
  Plant response rating, Ragweed: 70
Ragweed [18]; Postemergence, 125 g ai/ha
  Plant response rating, Ragweed: 60
Barnyardgrass [19]
  Plant response rating, Barnyardgrass (Flood): 30
Blackgrass [20]; 500 g ai/ha, postemergence
  Plant response rating, Blackgrass: 90
Blackgrass [20]; Postemergence, 125 g ai/ha
  Plant response rating, Blackgrass: 50
pigweed, palmer [21]; 500 g ai/ha, postemergence
  Plant response rating, Pigweed, Palmer: 100
pigweed, palmer [21]; Postemergence, 125 g ai/ha
  Plant response rating, Pigweed, Palmer: 80
